Assay results published in publication PMC9015279 (Chemmedchem, 2021).
Read-outs that look alike come from different tables or passages of the source.

How the values were obtained:
[1] = target: T1, SARS-CoV-2 main protease (M^pro) (Severe acute respiratory syndrome coronavirus 2, UniProt P0DTD1); assay: biochemical
[2] = target: T1, SARS-CoV-2 main protease (M^pro); assay: protein-observed mass spectrometry (POMS) under denaturing conditions, number of covalent reactions; type: binding; conditions: 40 μM compound, 2 μM M^pro, 20 mM HEPES, pH 7.5, 50 mM NaCl, covalent reactions with M^pro
[3] = target: T1, SARS-CoV-2 main protease (M^pro); assay: biochemical; conditions: for FRET pIC50 / apparent max. no. of reactions: ratio of FRET pIC50 to number of reactions observed by MS; for IC50: […] substrate, pH 7.3, 15 min pre-incubation
[4] = M^pro (0.3 µM) incubated 15 min with compound, TSAVLQ/SGFRK-NH2 peptide (4 µM), 10 min reaction, read-out: SPE-MS IC50
[5] = M^pro (0.3 µM) incubated 15 min with compound, TSAVLQ/SGFRK-NH2 peptide (4 µM), 10 min reaction, read-out: SPE-MS pIC50 (converted)
[6] = 50 nM M^pro, read-out: FRET IC50
[7] = 50 nM M^pro, read-out: FRET pIC50 (converted)

O=c1c2cccc(Br)c2sn1-c1ccccc1 [Compound 3c]
IC50 [1, 4]: 10900 ± 820 nM | Apparent max. no. of reactions [2]: completely prevents irreversible covalent reaction

O=c1c2cccc(-c3ccccc3)c2sn1-c1ccccc1 [Compound 3d]
IC50 [1, 4]: > 100000 nM | Apparent max. no. of reactions [2]: completely prevents irreversible covalent reaction

O=c1c2cnccc2sn1-c1ccccc1 [Compound 3f]
IC50 [1, 5]: 427 nM | Apparent max. no. of reactions [2]: 9 | most dominant no. of reactions [2]: 5 | FRET pIC50 / apparent max. no. of reactions [3]: 0.7

Cc1cccc2c(=O)n(-c3ccccc3)sc12 [Compound 3b]
IC50 [1, 4]: > 100000 nM | Apparent max. no. of reactions [2]: 1 | most dominant no. of reactions [2]: 0

CC(C)CCn1sc2ccccc2c1=O [Compound 4a]
IC50 [1, 5]: 417 nM | Apparent max. no. of reactions [2]: 6 | most dominant no. of reactions [2]: 4 | IC50 [3, 6]: ~320 nM | IC50 [3, 7]: 316 nM | FRET pIC50 / apparent max. no. of reactions [3]: 1.1

O=c1c2ccccc2sn1-c1ccccn1 [Compound 8]
IC50 [1, 4]: 790 ± 90 nM | Apparent max. no. of reactions [2]: 6 | most dominant no. of reactions [2]: 2 | IC50 [3, 6]: 220 ± 100 nM | IC50 [3, 7]: 214 nM | FRET pIC50 / apparent max. no. of reactions [3]: 1.1

COCCn1sc2ccccc2c1=O [Compound 10]
IC50 [1]: 780 ± 180 nM | Apparent max. no. of reactions [2]: 5 | most dominant no. of reactions [2]: 2 | IC50 ([3]; FRET IC50, 50 nM M^pro): 950 ± 40 nM | IC50 ([3]; FRET pIC50, 50 nM M^pro): 776 nM | FRET pIC50 / apparent max. no. of reactions [3]: 1.2

Cc1cccc2c(=O)n(CCC(C)C)sc12 [Compound 4b]
IC50 [1, 4]: > 100000 nM | Apparent max. no. of reactions [2]: 0

O=c1c2ccccc2sn1Cc1ccccc1 [Compound 5]
IC50 [1, 4]: 430 ± 30 nM | IC50 [1, 5]: 437 nM | Apparent max. no. of reactions [2]: 6 | most dominant no. of reactions [2]: 4 | IC50 [3, 7]: 178 nM | FRET pIC50 / apparent max. no. of reactions [3]: 1.1

O=c1c2cc(Br)ccc2sn1-c1ccccc1 [Compound 3e]
IC50 [1, 5]: 339 ± 19.9 nM | most dominant no. of reactions [2]: 1 | IC50 [3, 7]: 30.9 nM | FRET pIC50 / apparent max. no. of reactions [3]: 3.8

CC(C)CCn1sc2ccc(Br)cc2c1=O [Compound 4d]
IC50 [1, 4]: 430 ± 10 nM | IC50 [1, 5]: 339 nM | Apparent max. no. of reactions [2]: 2 | most dominant no. of reactions [2]: 0 | most dominant no. of reactions ([2]; listed as 4 d): no reaction | IC50 [3, 6]: ~210 nM | IC50 [3, 7]: 209 nM | FRET pIC50 / apparent max. no. of reactions [3]: 3.3

O=c1c2ccccc2sn1-c1ccccc1 [Compound 3a]
IC50 ([1]; read-out: SPE-MS pIC50 (converted)): 339 ± 69.8 nM | Apparent max. no. of reactions [2]: 11/11 | most dominant no. of reactions [2]: 11/11 | Apparent max. no. of reactions ([2]; listed as 3 a): 11 | most dominant no. of reactions ([2]; listed as 3 a): 11 | IC50 [3, 6]: ~130 nM | IC50 [3, 7]: 129 nM | FRET pIC50 / apparent max. no. of reactions [3]: 0.6

O=c1c2ccccc2[se]n1-c1ccccc1 [Compound 1, ebselen, reference compound]
Apparent max. no. of reactions [2]: 12/12 | most dominant no. of reactions [2]: 12/12 | Apparent max. no. of reactions ([2]; listed as ebselen): up to 12

CC(C)CCn1sc2c(Br)cccc2c1=O [Compound 4c]
IC50 [1, 4]: > 100000 nM | Apparent max. no. of reactions [2]: completely prevents irreversible covalent reaction | IC50 [3, 7]: 93300 nM

CCCCCn1sc2ccccc2c1=O [Compound 7]
IC50 [1, 4]: 470 nM | Apparent max. no. of reactions [2]: 5 | most dominant no. of reactions [2]: 4 | IC50 [3, 6]: ~410 nM | IC50 [3, 7]: 407 nM | FRET pIC50 / apparent max. no. of reactions [3]: 1.3

COC(=O)Cn1c(=O)c2ccccc2[s+]1[O-] (stereo not drawn) [Compound 12]
IC50 [1, 4]: 20100 ± 1120 nM | IC50 [3, 6]: 2830 ± 340 nM

O=c1c2ccccc2sn1CC1CCCCC1 [Compound 6]
IC50 [1, 4]: 530 ± 50 nM | Apparent max. no. of reactions [2]: 6 | most dominant no. of reactions [2]: 4 | IC50 [3, 7]: 933 nM | FRET pIC50 / apparent max. no. of reactions [3]: 1.0

O=C1C[C@H](Cn2sc3ccccc3c2=O)CN1 [Compound 9]
IC50 [1, 4]: 2550 ± 570 nM | IC50 [1, 5]: 2510 nM | IC50 [3, 6]: 510 ± 20 nM | FRET pIC50 / apparent max. no. of reactions [3]: 2.1

O=c1[nH]sc2ccccc12 [Compound 2]
IC50 [1]: 990 ± 150 nM | Apparent max. no. of reactions [2]: 6 | most dominant no. of reactions [2]: 2 | IC50 ([3]; FRET IC50, 50 nM M^pro): 1510 ± 90 nM | FRET pIC50 / apparent max. no. of reactions [3]: 1.0

COC(=O)CCn1sc2ccccc2c1=O [Compound 11]
IC50 [1, 5]: 389 ± 49.9 nM | Apparent max. no. of reactions [2]: 6 | most dominant no. of reactions [2]: 2 | IC50 [3, 7]: 245 nM | FRET pIC50 / apparent max. no. of reactions [3]: 1.1
